{"source": "patent US20160016951A1", "about": "(Merck Patent GmbH, priority 2014, published 2016)", "data": [{"target": "T1, CDK8 (CDK8/CycC) (Homo sapiens, UniProt P49336)", "T1 construct": "purchased Invitrogen PV4402", "T1 sequence (P49336 whole entry)": "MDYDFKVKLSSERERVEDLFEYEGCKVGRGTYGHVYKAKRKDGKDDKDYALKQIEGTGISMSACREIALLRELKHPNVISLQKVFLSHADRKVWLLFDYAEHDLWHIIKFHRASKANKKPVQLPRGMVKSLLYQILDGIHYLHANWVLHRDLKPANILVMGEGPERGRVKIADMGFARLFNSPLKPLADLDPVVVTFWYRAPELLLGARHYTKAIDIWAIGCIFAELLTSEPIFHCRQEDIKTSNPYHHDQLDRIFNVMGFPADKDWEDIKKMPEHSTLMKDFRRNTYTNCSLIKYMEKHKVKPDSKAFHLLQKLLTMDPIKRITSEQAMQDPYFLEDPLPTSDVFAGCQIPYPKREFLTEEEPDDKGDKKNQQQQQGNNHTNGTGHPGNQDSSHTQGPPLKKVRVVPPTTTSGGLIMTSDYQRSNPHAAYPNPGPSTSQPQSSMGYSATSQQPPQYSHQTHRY", "T1 sequence (P24863 whole entry partner)": "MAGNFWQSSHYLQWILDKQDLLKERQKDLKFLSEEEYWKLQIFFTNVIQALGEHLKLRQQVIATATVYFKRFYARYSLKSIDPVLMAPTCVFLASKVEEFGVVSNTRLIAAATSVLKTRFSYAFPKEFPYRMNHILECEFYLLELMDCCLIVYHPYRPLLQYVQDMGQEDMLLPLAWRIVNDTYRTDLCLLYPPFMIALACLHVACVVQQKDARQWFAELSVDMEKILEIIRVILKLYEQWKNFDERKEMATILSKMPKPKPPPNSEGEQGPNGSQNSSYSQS", "assay": "FRET based Lanthascreen binding competition assay", "settings": "5 nM CDK8/CycC, 10 nM Alexa647-Tracer, 1% DMSO, 60 min at RT; read-out: IC50 CDK8 binding", "procedure,_shortened": "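CDK8 co-expressed with CycC and labelled through biotinylated anti-His antibody and streptavidin-Eu was preincubated with compound for 20 min at RT. An Alexa647 ATP-competitive probe was then added for 60 min at RT in the dark. Probe displacement was read as loss of TR-FRET (excitation 340 nm, emission 650 nm).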", "units": {"IC50": "nM"}, "values": [{"smiles": "Nc1ncc(-c2ccc3c(c2)NC(=O)C3)c2cc(C(=O)N3CC(F)(F)C3)ccc12", "note": "[Compound 154, 6-(1-amino-6-(3,3-difluoroazetidine-1-carbonyl)isoquinolin-4-yl)indolin-2-one]", "IC50": "10 to 100"}, {"smiles": "COC1CN(C(=O)c2ccc3cncc(-c4ccc5c(c4)CCC(=O)N5C)c3c2)C1", "note": "[Compound 155, 6-[6-(3-Methoxy-azetidine-1-carbonyl)-isoquinolin-4-yl]-1-methyl-3,4-dihydro-1H-quinolin-2-one]", "IC50": "10 to 100"}, {"smiles": "COC1CN(C(=O)c2ccc3cncc(-c4ccc(-c5ccn(C)n5)cc4)c3n2)C1", "note": "[Compound 156, (3-methoxyazetidin-1-yl)(8-(4-(1-methyl-1H-pyrazol-3-yl)phenyl)-1,6-naphthyridin-2-yl)methanone]", "IC50": "10 to 100"}, {"smiles": "CC(C)S(=O)(=O)Nc1ccc2cncc(-c3ccc(-c4cnn(C)c4)cc3)c2c1", "note": "[Compound 157, Propane-2-sulfonic acid {4-[4-(1-methyl-1H-pyrazol-4-yl)-phenyl]-isoquinolin-6-yl}-amide]", "IC50": "< 10"}, {"smiles": "CN1C(=O)CCc2cc(-c3cncc4ccc(C(=O)N5CC(F)(F)C5)cc34)ccc21", "note": "[Compound 158, 6-[6-(3,3-Difluoro-azetidine-1-carbonyl)-isoquinolin-4-yl]-1-methyl-3,4-dihydro-1H-quinolin-2-one]", "IC50": "10 to 100"}, {"smiles": "COC1CN(C(=O)c2ccc3cncc(-c4ccc5c(c4)CC(=O)N5C)c3c2)C1", "note": "[Compound 159, 5-[6-(3-Methoxy-azetidine-1-carbonyl)-isoquinolin-4-yl]-1-methyl-1,3-dihydro-indol-2-one]", "IC50": "10 to 100"}, {"smiles": "COC1CN(C(=O)c2ccc3c(N)ncc(-c4ccc(-c5ccn(C)n5)cc4)c3n2)C1", "note": "[Compound 160, (5-amino-8-(4-(1-methyl-1H-pyrazol-3-yl)phenyl)-1,6-naphthyridin-2-yl)(3-methoxyazetidin-1-yl)methanone]", "IC50": "101 to 500"}, {"smiles": "COC1CN(C(=O)c2ccc3c(N)ncc(-c4ccc(-c5cnn(C(C)C)c5)cc4)c3n2)C1", "note": "[Compound 161, (5-amino-8-(4-(1-isopropyl-1H-pyrazol-4-yl)phenyl)-1,6-naphthyridin-2-yl)(3-methoxyazetidin-1-yl)methanone]", "IC50": "10 to 100"}, {"smiles": "Cn1cc(-c2ccc(-c3cncc4ccc(NS(=O)(=O)C5CC5)cc34)cc2)cn1", "note": "[Compound 162, Cyclopropanesulfonic acid {4-[4-(1-methyl-1H-pyrazol-4-yl)-phenyl]-isoquinolin-6-yl}-amide]", "IC50": "< 10"}, {"smiles": "CN1C(=O)Cc2ccc(-c3cncc4ccc(C(=O)N5CC(F)(F)C5)cc34)cc21", "note": "[Compound 163, 6-[6-(3,3-Difluoro-azetidine-1-carbonyl)-isoquinolin-4-yl]-1-methyl-1,3-dihydro-indol-2-one]", "IC50": "10 to 100"}, {"smiles": "CN1C(=O)Cc2ccc(-c3cnc(N)c4ccc(C(=O)N5CC(F)(F)C5)cc34)cc21", "note": "[Compound 164, 6-[1-Amino-6-(3,3-difluoro-azetidine-1-carbonyl)-isoquinolin-4-yl]-1-methyl-1,3-dihydro-indol-2-one]", "IC50": "10 to 100"}, {"smiles": "COC1CN(C(=O)c2ccc3cncc(-c4ccc5c(c4)N(C)C(=O)C5)c3c2)C1", "note": "[Compound 165, 6-[6-(3-Methoxy-azetidine-1-carbonyl)-isoquinolin-4-yl]-1-methyl-1,3-dihydro-indol-2-one]", "IC50": "< 10"}, {"smiles": "COCCn1cc(-c2ccc(-c3cncc4ccc(NS(C)(=O)=O)cc34)cc2)cn1", "note": "[Compound 166, N-(4-(4-(1-(2-methoxyethyl)-1H-pyrazol-4-yl)phenyl)isoquinolin-6-yl)methanesulfonamide]", "IC50": "< 10"}, {"smiles": "COCCN(c1ccc2cncc(-c3ccc(-c4cnn(C)c4)cc3)c2c1)S(C)(=O)=O", "note": "[Compound 167, N-(2-methoxyethyl)-N-(4-(4-(1-methyl-1H-pyrazol-4-yl)phenyl)isoquinolin-6-yl)methanesulfonamide]", "IC50": "101 to 500"}, {"smiles": "Cn1cc(-c2ccc(-c3cncc4ccc(NS(=O)(=O)C5(C)CC5)cc34)cc2)cn1", "note": "[Compound 168, 1-Methyl-cyclopropanesulfonic acid {4-[4-(1-methyl-1H-pyrazol-4-yl)-phenyl]-isoquinolin-6-yl}-amide]", "IC50": "< 10"}, {"smiles": "Cn1cc(-c2ccc(-c3cncc4ccc(NS(=O)(=O)N5CCC5)cc34)cc2)cn1", "note": "[Compound 169, Azetidine-1-sulfonic acid {4-[4-(1-methyl-1H-pyrazol-4-yl)-phenyl]-isoquinolin-6-yl}-amide]", "IC50": "< 10"}, {"smiles": "CN1C(=O)Cc2cc(-c3cncc4ccc(C(=O)N5CC(F)(F)C5)cc34)ccc21", "note": "[Compound 170, 5-[6-(3,3-Difluoro-azetidine-1-carbonyl)-isoquinolin-4-yl]-1-methyl-1,3-dihydro-indol-2-one]", "IC50": "10 to 100"}, {"smiles": "CN1C(=O)Cc2cc(-c3cnc(N)c4ccc(C(=O)N5CC(F)(F)C5)cc34)ccc21", "note": "[Compound 171, 5-[1-Amino-6-(3,3-difluoro-azetidine-1-carbonyl)-isoquinolin-4-yl]-1-methyl-1,3-dihydro-indol-2-one]", "IC50": "10 to 100"}, {"smiles": "CN1C(=O)CCc2cc(-c3cnc(N)c4ccc(C(=O)N5CC(F)(F)C5)cc34)ccc21", "note": "[Compound 172, 6-[1-Amino-6-(3,3-difluoro-azetidine-1-carbonyl)-isoquinolin-4-yl]-1-methyl-3,4-dihydro-1H-quinolin-2-one]", "IC50": "101 to 500"}, {"smiles": "COC1CN(C(=O)c2ccc3c(N)ncc(-c4ccc5c(c4)N(C)C(=O)C5)c3c2)C1", "note": "[Compound 173, 6-[1-Amino-6-(3-methoxy-azetidine-1-carbonyl)-isoquinolin-4-yl]-1-methyl-1,3-dihydro-indol-2-one]", "IC50": "10 to 100"}, {"smiles": "Cc1nc(-c2ccc(-c3cncc4ccc(C(=O)N5CC(F)(F)C5)cc34)cc2)cn1C", "note": "[Compound 175, (3,3-Difluoro-azetidin-1-yl)-{4-[4-(1,2-dimethyl-1H-imidazol-4-yl)-phenyl]-isoquinolin-6-yl}-methanone]", "IC50": "10 to 100"}, {"smiles": "Cc1nc(-c2ccc(-c3cnc(N)c4ccc(C(=O)N5CC(F)(F)C5)cc34)cc2)cn1C", "note": "[Compound 176, {1-Amino-4-[4-(1,2-dimethyl-1H-imidazol-4-yl)-phenyl]-isoquinolin-6-yl}-(3,3-difluoro-azetidin-1-yl)-methanone]", "IC50": "10 to 100"}, {"smiles": "COC1CN(C(=O)c2ccc3c(N)ncc(-c4ccc5c(c4)CC(=O)N5C)c3c2)C1", "note": "[Compound 177, 5-[1-Amino-6-(3-methoxy-azetidine-1-carbonyl)-isoquinolin-4-yl]-1-methyl-1,3-dihydro-indol-2-one]", "IC50": "10 to 100"}, {"smiles": "COC1CN(C(=O)c2ccc3c(N)ncc(-c4ccc5c(c4)CCC(=O)N5C)c3c2)C1", "note": "[Compound 178, 6-(1-amino-6-(3-methoxyazetidine-1-carbonyl)isoquinolin-4-yl)-1-methyl-3,4-dihydroquinolin-2(1H)-one]", "IC50": "101 to 500"}, {"smiles": "Cn1cc(-c2ccc(-c3cncc4ccc(C(=O)N5CC(C)(F)C5)nc34)cc2)cn1", "note": "[Compound 180, (3-fluoro-3-methylazetidin-1-yl)(8-(4-(1-methyl-1H-pyrazol-4-yl)phenyl)-1,6-naphthyridin-2-yl)methanone]", "IC50": "< 10"}, {"smiles": "Cn1cc(-c2ccc(-c3cncc4ccc(C(=O)N5CCC5)cc34)cc2)cn1", "note": "[Compound 181, azetidin-1-yl(4-(4-(1-methyl-1H-pyrazol-4-yl)phenyl)isoquinolin-6-yl)methanone]", "IC50": "< 10"}, {"smiles": "COC1(C)CN(C(=O)c2ccc3cncc(-c4ccc(-c5cnn(C)c5)cc4)c3c2)C1", "note": "[Compound 185]", "IC50": "10 to 100"}, {"smiles": "Cn1cc(-c2ccc(-c3cncc4ccc(C(=O)N5CC(C)(F)C5)cc34)cc2)cn1", "note": "[Compound 186, (3-fluoro-3-methylazetidin-1-yl)(4-(4-(1-methyl-1H-pyrazol-4-yl)phenyl)isoquinolin-6-yl)methanone]", "IC50": "10 to 100"}, {"smiles": "Cn1cc(-c2ccc(-c3cncc4ccc(S(C)(=O)=O)cc34)cc2)cn1", "note": "[Compound 189, 6-Methanesulfonyl-4-[4-(1-methyl-1H-pyrazol-4-yl)-phenyl]-isoquinoline]", "IC50": "10 to 100"}, {"smiles": "Cn1cc(-c2ccc(-c3cncc4ccc(S(C)(=N)=O)cc34)cc2)cn1", "note": "(centres unmarked) [Compound 190, 6-[imino(methane)sulfinyl]-4-[4-(1-methyl-1H-pyrazol-4-yl)phenyl]isoquinoline]", "IC50": "10 to 100"}, {"smiles": "O=C(c1ccc2cncc(-c3ccc4c(c3)CS(=O)(=O)N4)c2c1)N1CCC1", "note": "[Compound 192, azetidin-1-yl(4-(2,2-dioxido-1,3-dihydrobenzo[c]isothiazol-5-yl)isoquinolin-6-yl)methanone]", "IC50": "< 10"}, {"smiles": "N#Cc1ccc2cncc(-c3ccc4c(c3)CS(=O)(=O)N4)c2c1", "note": "[Compound 193, 4-(2,2-dioxido-1,3-dihydrobenzo[c]isothiazol-5-yl)isoquinoline-6-carbonitrile]", "IC50": "10 to 100"}, {"smiles": "Nc1ncc(-c2ccc3c(c2)CS(=O)(=O)N3)c2cc(C(=O)N3CCC3)ccc12", "note": "[Compound 194, (1-amino-4-(2,2-dioxido-1,3-dihydrobenzo[c]isothiazol-5-yl)isoquinolin-6-yl)(azetidin-1-yl)methanone]", "IC50": "< 10"}, {"smiles": "Cn1cc(-c2ccc(-c3cncc4ccc(C(=O)N5CCC(F)(F)C5)cc34)cc2)cn1", "note": "[Compound 195, (3,3-difluoropyrrolidin-1-yl)(4-(4-(1-methyl-1H-pyrazol-4-yl)phenyl)isoquinolin-6-yl)methanone]", "IC50": "10 to 100"}, {"smiles": "Cn1cc(-c2ccc(-c3cnc(N)c4ccc(C(=O)N5CCC(F)(F)C5)cc34)cc2)cn1", "note": "[Compound 196, (1-amino-4-(4-(1-methyl-1H-pyrazol-4-yl)phenyl)isoquinolin-6-yl)(3,3-difluoropyrrolidin-1-yl)methanone]", "IC50": "10 to 100"}]}]}
